Laboratory results taken from US20070154464A1, “Methods for screening for agents capable of modulating t lymphocyte function in response to a herpes simplex virus-infected cell” (priority 2003, published 2007).
Like-named read-outs stand apart in the source and are kept apart here.

Columns and labels:
[1] = test system: HSV-inactivated T cells; format: cell-based, human
[2] = test system: CTL; assay: Mitochondrial potential of CTL by MitoTracker Red CMXRos flow cytometry; format: cell-based, human; conditions: 1 μM, 4 h, CTL without fibroblasts
Protocol: Mitochondrial potential was assessed in untreated CTL, CTL treated with 1 μM staurosporine (Sigma, St. Louis, Mo.) for 4 h, CTL incubated with uninfected fibroblasts (control) for 4 h, and CTL incubated with HSV-infected fibroblasts (inactivated) for 4 h. CTL were then stained using MitoTracker® Red CMXRos as per the manufacturer's instructions (Molecular Probes, Inc., Eugene, Oreg.). Control and inactivated CTL were also stained with antibody against CD95/Fas (clone DX2, Dako, Carpinteria, Calif.) and with the DNA-binding dye 7-amino-actinomycin D (7-AAD, Sigma, St. Louis, Mo.) and analyzed by flow cytometry.

[3] = test system: CTL; assay: Redirected cell lysis of 51Cr-labeled FcγR+ P815 target cells by anti-CD3-labeled CTL; format: cell-based, human; conditions: antibody 1 μg/ml for 15 m; control vs inactivated CTL; 5 h
[4] = test system: T cells; format: cell-based, human
[5] = test system: CD8+ CTL clone SKH-13; format: cell-based, human
[6] = test system: HSV-2; assay: Quantitative real-time PCR (TaqMan) of HSV levels in fibroblasts and CTL; format: cell-based
Protocol: Quantitative Real-Time PCR Using TaqMan® Chemistry: CTL were incubated with uninfected or HSV-infected fibroblasts for 4 h, removed by aspiration, and incubated for 5 h at 37° C. In the acyclovir group, fibroblasts were treated with 50 μM acyclovir for 2 h prior to infecting with HSV for 6 h. Removed CTL were then incubated with CD8-conjugated Dynabeads® (Dynal A.S., Oslo, Norway) for 30 m rocking at 4° C. and washed as directed by the manufacturer. DNA was purified from uninfected fibroblasts, HSV-infected fibroblasts, and CD8 enriched CTL using DNeasy® Tissue Kits (Qiagen, Valencia, Calif.). DNA was quantified by spectrophotometry and used as template in TaqMan® real-time PCR reactions with primers and fluorogenic probes specific for the HSV glycoprotein B gene or the cellular beta-globin gene. Reactions were carried out using an ABI 7700 Sequencer (Applied Biosystems, Foster City, Calif.), and the sequences and concentrations of the primers and probes used were as previously described (Liu et al., J. Virol. 75:11178, 2001).
The most sensitive technique available to detect the presence of HSV is real-time, quantitative PCR. Primers and probes against a viral gene (gB) and a cellular gene (beta globin) were used to determine the number of HSV copies per cell in HSV-infected fibroblasts and in inactivated CTL. […]

IL-15: human recombinant IL-15 (Peprotech)
Restoration of lytic function to HSV-inactivated T cells [1]: not to restore lytic function

CN[C@@H]1C[C@H]2O[C@@](C)([C@@H]1OC)n1c3ccccc3c3c4c(c5c6ccccc6n2c5c31)C(=O)NC4 [staurosporine]
CMXRos signal (mitochondrial membrane potential) in CTL [2]: significant decrease in the CMXRos signal

OKT3: monoclonal antibody raised against CD3 (clone OKT3, Ortho-McNeil)
Lytic granule release via redirected lysis [3]: Control but not inactivated CTL were capable of lytic granule release
TNF-α and IFN-γ synthesis by inactivated T cells [4]: failed to synthesize TNF-α and IFN-γ

C[C@@H]1C[C@@H]([C@H](O)CC2CC(=O)NC(=O)C2)C(=O)[C@@H](C)C1 [CHX, cyclohexamide]
Effect on HSV-mediated inactivation of CTL ([5]; CTL (5 h prior) or targets exposed to 10 μg/ml): no effect on HSV-mediated inactivation
Effect on HSV-mediated inactivation of CTL ([5]; fibroblasts treated with 10 μg/ml for 10 h prior to infection): abolished HSV-mediated inactivation

C/C=C/[C@H]1O[C@@](O)([C@@H](C)[C@H](O)[C@H](C)[C@H]2OC(=O)/C(OC)=C/C(C)=C/[C@@H](C)[C@@H](O)[C@@H](CC)[C@@H](O)[C@H](C)C/C(C)=C/C=C/[C@@H]2OC)C[C@@H](O)[C@@H]1C [concanamycin]
51Cr release from target cells by SKH-13 CTL clone [5]: prevented ^51Cr release from target cells

Nc1nc2c(ncn2COCCO)c(=O)[nH]1 [acyclovir]
# HSV Copies/cell ([6]; CTL incubated 4 h on HSV-2-infected fibroblasts treated with 50 μM acyclovir, CD8-bead enriched): 0.16 Copies/cell
HSV copies detected per CTL ([6]; fibroblasts treated with 50 μM acyclovir prior to infection, inactivated CTL): 1 copy of HSV was detected per 6 CTL

B1: IL-7: human recombinant IL-7 (RnDSystems) (protein, UniProt P13232 26-177, looked up)
Interleukin-7: DCDIEGKDGKQYESVLMVSIDQLLDSMKEIGSNCLNNEFNFFKRHICDANKEGMFLFRAARKLRQFLKMNSTGDFDLHLLKVSEGTTILLNCTGQVKGRKPAALGEAQPTKSLEENKSLKEQKKLNDLCFLKRLLQEIKTCWNKILMGTKEH
Restoration of lytic function to HSV-inactivated T cells [1]: not to restore lytic function
